According to patent US8247458B2, “Therapeutic agent for diabetic neuropathy” (Taiho Pharmaceutical Co., Ltd., priority 2006, dated 2012):

Tested on: diabetes model rats induced by STZ
Test: von Frey test in streptozotocin-induced diabetic neuropathy model rats
Format: in vivo, rat
Details: vs STZ control group; for suppression effect of neuropathy (pain threshold, von Frey test): p value under 0.001%; for analgesic effect (pain threshold, threshold of the escape reaction of limb, von Frey test): first day of the measurement (first dose)
Method: By use of male rats with the weight of more than 160 g, 50 mg/kg of streptozotocin (STZ, Sigma-Aldrich Co.) was administered thereto intravenously at the dose of 2 mL/kg to prepare the diabetes model rats induced by STZ (Malcangio M. et al., Pain, 1998). Animals with the blood sugar level of more than 200 mg/dL were adopted as diabetes models. For the measurements of the blood sugar level, the blood (2 μL) collected from the tail vein was measured by use of a measurement chip (Glutest Sensor, Arkray, Inc.) and a portable instrument for measuring blood sugar of Glutest PRO R (Model GT-1661, Arkray, Inc.).
The pain threshold was measured by carrying out the von Frey test on both right and left foot pats of the rats by use of Dynamic Planter Aesthesiometer (Model No. 37400, Ugo Basile, Inc.), and its maximum pressure was set to be 30.0 g, and the arriving time to the maximum pressure was set to be 40 seconds. Eight days after the administration of STZ, the individuals with the pain threshold of higher than a certain level were selected and divided into the groups so that the measured pain thresholds might become even in each group. To the diabetes model rats induced by STZ was administered continuously for one week either 30 mg/kg of suplatast tosylate intraperitoneally or 100 mg/kg of the same orally, and the intraperitoneally administered group and the orally administered group were produced respectively. The diabetes model rats induced by STZ to which solvent (distilled water) was administered orally were designated to the STZ control group. Moreover, the animals of no treatment, i.e. no administration of STZ, to which solvent (distilled water) was administered orally were used as the normal control group. On the 1st, 4th and 7th days after the administration, were measured the pain thresholds of the right and left foot pats for each of the group (8 rats/group), and the analgesic effect was estimated by the threshold of the escape reaction of limb (the total of pain threshold value both of the right and left foot pats). The pain thresholds were measured from 1 to 1.5 hours after the administration, respectively. The Student's test, which is a test for every 2 groups, was applied to the significant difference test of the average value, and the significant level were shown by the following indications:
## (Normal control group vs. STZ control group): p value under 0.001%, and
** (STZ control group vs. orally administered group or intraperitoneally administered group): p value under 0.001%
The orally administered group and the intraperitoneally administered group were compared with the STZ control groups, respectively. Moreover, the STZ control groups were compared with the normal control groups, and the establishments of the diabetes neuropathy model were respectively judged.

CCOCC(O)COc1ccc(NC(=O)CC[S+](C)C)cc1.Cc1ccc(S(=O)(=O)[O-])cc1 (racemic) [suplatast tosylate, (±)-[2-[4-(3-Ethoxy-2-hydroxypropoxy)phenylcarbamoyl]-ethyl]dimethylsulfonium p-toluenesulfonate]
suppression effect of neuropathy (pain threshold, von Frey test) (30 mg/kg intraperitoneal daily, 4th day): significant suppression effects of neuropathy | suppression effect of neuropathy (pain threshold, von Frey test) (30 mg/kg intraperitoneal daily, 7th day): significant suppression effects of neuropathy | analgesic effect (pain threshold, threshold of the escape reaction of limb, von Frey test) (30 mg/kg intraperitoneal): analgesic effects were not found | suppression effect of neuropathy (pain threshold, von Frey test) (100 mg/kg oral daily, 4th day): significant suppression effects of neuropathy | suppression effect of neuropathy (pain threshold, von Frey test) (100 mg/kg oral daily, 7th day): significant suppression effects of neuropathy | analgesic effect (pain threshold, threshold of the escape reaction of limb, von Frey test) (100 mg/kg oral): analgesic effects were not found
